Measurements taken from PMC5149029, “New Aspects of Silibinin Stereoisomers and their 3-O-galloyl Derivatives on Cytotoxicity and Ceramide Metabolism in Hep G2 hepatocarcinoma Cell Line” (Iranian Journal of Pharmaceutical Research : IJPR, 2016).
Marks after values point to notes of the source that are not given here.

Assays:
Hep G2 cells = experiment: Cell viability, MTT colorimetric assay; assay type: cell-based; details: Hep G2, 48 h
Experimental: The cell line was grown in RPMI-1640 medium supplemented with L-glutamine 2 mM, HEPESNa 25 mM, penicillin 100 U/mL, streptomycin 100 μg/mL and 10% phosphate-buffered saline (FBS) at 37 °C in a humidified atmosphere containing 5% CO2. Hep G2 cells were seeded at 1 × 10^6 cells/mL and sub cultured every 2–3 days after 60–80% confluence was reached. […] For each experiment, the cells were treated separately with increasing concentrations of silibinin derivatives (0, 25, 50, 75, 100, 125, 150, 175 and 200 μM) and incubated for 48 h.
To measure cell viability, the 3-(4,5-dimethylthiazol-2-yl)-2,5-diphenyl tetrazolium bromide (MTT) colorimetric assay was performed as published ([32], [33]). Briefly, Hep G2 cells were seeded onto 96 flat bottom well plates (50 × 10^3 cells/well) and grown overnight. After the incubation period with silibinin isomers, cells were washed twice with phosphate-buffered saline solution and incubated with MTT solution at a final concentration of 0.5 mg/mL for 3 h and then lysed in dimethyl sulfoxide. Optical density was measured at 540 nm and the background absorbance measured at 660 nm was subtracted. Each experiment was replicated separately for three times.

caspase-3 = experiment: Caspase-3 activity, colorimetric substrate Ac-DEVD-pNA; assay type: cell-based, human; details: Hep G2, 48 h, control 0.38
Experimental: (§1) The cell line was grown in RPMI-1640 medium supplemented with L-glutamine 2 mM, HEPESNa 25 mM, penicillin 100 U/mL, streptomycin 100 μg/mL and 10% […] (FBS) at 37 °C in a humidified atmosphere containing 5% CO2. Hep G2 cells were seeded at 1 × 10^6 cells/mL and sub cultured every 2–3 days after 60–80% confluence was reached. To prepare the lysates cells attached to the culture plate were scraped off with a cell scraper and collected in a 1.5 mL tube by centrifugation. The cell pellets were rinsed with PBS, suspended in sterile water, and then lysed by sonication. For each experiment, the cells were treated separately with increasing concentrations of silibinin derivatives (0, 25, 50, 75, 100, 125, 150, 175 and 200 μM) and incubated for 48 h.
(§2) The activities of caspase-3 and 9 were measured using colorimetric substrates. Cells were added to a lysis buffer (100 mM HEPES [pH 7.5], 0.1% CHAPS, 1 mM PMSF, 10 mM MDTT, 1 mM EDTA) and placed on ice for 30 min. After the cells were centrifuged at 10,000 × g for 10 min at 4 °C, 50 μg of protein from the supernatants was added to each of the caspase substrates. The colorimetric substrates for caspase-3 and 9 were Ac-DEVD-pNA (Asp-Glu-Val-Asp-pNA) and Ac-LEHD-pNA (N-acetyl-Leu-Glu-His-Asp-pNA), respectively. After a 2 h incubation, to measure p-nitroanilide absorbance was determined at 405 nm ([34]).

caspase-9 = experiment: Caspase-9 activity, colorimetric substrate Ac-LEHD-pNA; assay type: cell-based, human; details: Hep G2, 48 h, control 0.26
Experimental: as §1, §2

[1] = target: T1, glucosyl ceramide synthase (GCS) (Homo sapiens, UniProt Q16739); experiment: GCS activity assay (C6-NBD-ceramide, HPLC); assay type: cell-based; details: Hep G2, 0-200 µM
T1 construct: endogenous in cells; host or cells: Hep G2
T1 sequence (Q16739 1-394): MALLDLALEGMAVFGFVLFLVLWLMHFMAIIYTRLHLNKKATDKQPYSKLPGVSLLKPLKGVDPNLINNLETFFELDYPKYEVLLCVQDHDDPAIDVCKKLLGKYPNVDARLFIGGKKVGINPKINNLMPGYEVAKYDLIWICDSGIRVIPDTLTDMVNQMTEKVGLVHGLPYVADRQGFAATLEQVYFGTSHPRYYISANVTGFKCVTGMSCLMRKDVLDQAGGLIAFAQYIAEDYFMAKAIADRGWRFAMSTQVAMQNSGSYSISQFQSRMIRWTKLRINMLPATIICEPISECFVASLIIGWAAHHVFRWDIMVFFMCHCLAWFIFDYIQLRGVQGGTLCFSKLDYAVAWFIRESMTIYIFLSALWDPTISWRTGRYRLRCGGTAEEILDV
Experimental: as §1
To determine GCS activities, the fluorescent acceptor substrate C6-4-nitrobenzo-2-oxa-1,3-diazole (NBD)-ceramide and a normal-phase HPLC were used. Acceptor substrate, 50 pM of C6-NBD-Cer and 6.5 nM of lecithin were mixed in 100 µL of ethanol and then the solvent was evaporated. Next, 10 µL of water was added and the mixture was sonicated to form liposomes. For the GCS assay, 50 µL of reaction mixture contains 500 µM UDP-Glc, 1mM EDTA, 10 µL of C6-NBD-Cer liposome and 20 µL of an appropriate amount of enzyme in lysis buffer. Addition of conduritol B epoxide (CBE) at 2.5 mM is effective at inhibiting the glycosidase activity. Standard assays were carried out at 37 °C for 1 h. The reaction was stopped by adding 200 µL of chloroform/methanol (2:1, v/v). After a few seconds of vortexing, 5 µL of 500 µM KCl was added and then centrifuged. After the organic phase had dried up, lipids were dissolved in 200 µL of isopropyl alcohol/n-hexane/H2O (55:44:1) and then transferred to a glass vial in auto sampler. A 100 µL aliquot of sample was automatically loaded onto a normal-phase column (Intersil SIL 150A-5, 4.6 x 250 mm, GL Sciences, Japan) and eluted with isopropyl alcohol/n-hexane/H2O (55:44:1) at a flow rate of 2.0 mL/min. Fluorescence was determined using a fluorescent detector (Hitachi L-7480) set to excitation and emission wavelengths of 470 and 530 nm, respectively. The fluorescent peaks were identified by comparing their retention times with those of standards ([37]).

[2] = test system: Neutral sphingomyelinase (NSMase); experiment: NSMase activity assay (Amplex Red kit); assay type: cell-based, human; details: Hep G2, 125 µM and higher concentrations
Experimental: as §1
Amplex™ Red NSMase Assay Kit (AAT Bioquest®, Inc. product no: 13620) was used to determine NSMases activity. The kit uses Amplite™ Red as a colorimetric probe to indirectly quantify the phosphocholine produced from the hydrolysis of sphingomyelin by NSMase.
Cells were washed with ice cold PBS and homogenized in neutral lysis buffer (20 mM Tris–HCl pH 7.4, 2 mM EDTA, 5 mM EGTA, 1 mM PMSF, 1% protein cocktail inhibitor and 1 mM sodium orthovanadate) for NSMase assays. Samples were kept on ice 15 min and centrifuged at 14,000 × g for 20 min at 4 °C. 100 µL of each supernatant fraction were incubated at 37 °C for 1hour with working solution. The fluorescence count of produced resorophine in the previous step was measured with a fluorescence micro plate reader by using excitation at 540 nm and emission at 590 nm ([36]).

COc1cc([C@H]2Oc3cc([C@H]4Oc5cc(O)cc(O)c5C(=O)[C@@H]4O)ccc3O[C@@H]2CO)ccc1O [SA, silybin A]
Cell viability (% of control) (Hep G2 cells; 25 micro molar): 97 + 10.0 % of control
Cell viability (% of control) (Hep G2 cells; 50 micro molar): 95 + 10.3 % of control
Cell viability (% of control) (Hep G2 cells; 75 micro molar): 89 + 11.4 % of control
Cell viability (% of control) (Hep G2 cells; 100 micro molar): 83 + 9.5 % of control
Cell viability (% of control) (Hep G2 cells; 125 micro molar): 71 + 8.3^* % of control
Cell viability (% of control) (Hep G2 cells; 150 micro molar): 63 + 7.4^* % of control
Cell viability (% of control) (Hep G2 cells; 175 micro molar): 52 + 6.0^* % of control
Cell viability (% of control) (Hep G2 cells; 200 micro molar): 47 + 5.5^* % of control
Caspase-3 (ΔOD 405nm) (caspase-3; 25 micro molar): 0.45 ± 0.055 ΔOD 405nm
Caspase-3 (ΔOD 405nm) (caspase-3; 50 micro molar): 0.58 ± 0.080 ΔOD 405nm
Caspase-3 (ΔOD 405nm) (caspase-3; 75 micro molar): 0.65 ± 0.098 ΔOD 405nm
Caspase-3 (ΔOD 405nm) (caspase-3; 100 micro molar): 0.79 ± 0.107 ΔOD 405nm
Caspase-3 (ΔOD 405nm) (caspase-3; 125 micro molar): 0.91 ± 0.133 ΔOD 405nm
Caspase-3 (ΔOD 405nm) (caspase-3; 150 micro molar): 0.98 ± 0.148 ΔOD 405nm
Caspase-3 (ΔOD 405nm) (caspase-3; 175 micro molar): 1.12 ± 0.164 ΔOD 405nm
Caspase-3 (ΔOD 405nm) (caspase-3; 200 micro molar): 1.06 ± 0.152 ΔOD 405nm
Caspase-9 (ΔOD 405nm) (caspase-9; 25 micro molar): 0.41 ± 0.060 ΔOD 405nm
Caspase-9 (ΔOD 405nm) (caspase-9; 50 micro molar): 0.50 ± 0.089 ΔOD 405nm
Caspase-9 (ΔOD 405nm) (caspase-9; 75 micro molar): 0.61 ± 0.102 ΔOD 405nm
Caspase-9 (ΔOD 405nm) (caspase-9; 100 micro molar): 0.73 ± 0.110 ΔOD 405nm
Caspase-9 (ΔOD 405nm) (caspase-9; 125 micro molar): 0.84 ± 0.133 ΔOD 405nm
Caspase-9 (ΔOD 405nm) (caspase-9; 150 micro molar): 0.96 ± 0.143 ΔOD 405nm
Caspase-9 (ΔOD 405nm) (caspase-9; 175 micro molar): 1.10 ± 0.164 ΔOD 405nm
Caspase-9 (ΔOD 405nm) (caspase-9; 200 micro molar): 1.16 ± 0.147 ΔOD 405nm
GCS activity, effect of treatment [1]: dose dependent inhibition
NSMase activity in comparison with control [2]: considerable increase
